Data published in patent US20250262139A1, “POLYPEPTIDES AND METHODS FOR IMPROVING SKIN CONDITIONS” (INTERK PEPTIDE THERAPEUTICS LIMITED, priority 2020, published 2025).
Where no end group is shown, it is not given here.

What was measured:
Assay type in all cases: cell-based
CREB-S133 = test: CREB phosphorylation by western blot in keratinocytes after solar simulated UV; details: 0.1 μM, 1 μM and 5 μM added immediately following ssUV irradiation
Method: The influence of the polypeptide IK34720 (SEQ ID NO: 3) on CREB phosphorylation was assessed using the following protocol.
Keratinocytes were harvested and cultured as previously described (Gupta et al., J Invest Dermatol, 2007, 127 (3): 707-215). Keratinocytes, (passages 1-5) from 3 independent donors were used in the experiments illustrated in FIG. 3.
Positive control treatment (denoted “D” in FIG. 3) was prepared by solubilizing Calcitriol (1,25-dihydroxyvitamin D3 (1,25 (OH)2D3)-Cayman Chemical, MI, USA) in 100% spectroscopic ethanol (Merck, Darmstadt, Germany) and the final concentration was determined by spectroscopy (NanoDrop 2000, Thermo Fisher Scientific, MA, USA). The polypeptide IK34720 (SEQ ID NO: 3) was solubilised in phosphate buffered saline (PBS) to a concentration of 1 mM at pH 7.2. A vehicle (denoted as “V” in FIG. 3) constituting 0.1% (v/v) spectroscopic ethanol and 0.1% (v/v) PBS was prepared for use as a negative control.
Cultured cells were irradiated by solar simulated UV-irradiation (ssUV) using an Oriel 1000W xenon-arc lamp (Stratford, CT, USA). Irradiation was administered at an energy level of 400 mJ/cm^2 for UVB and 3600 mJ/cm^2 for UVA (total 4000 mJ/cm^2), measured by an OL754 radiometer (Optronics Laboratories Inc., Orlando, FL). This dosage equates to approximately 4 min irradiation of the sun at 12 noon in October in Sydney, Australia. […]

dermal fibroblasts = test: TBARS lipid peroxidation assay, UV-irradiated dermal fibroblasts; details: IK-3 at the highest concentration (5 μM); 1,25D
Method: The ability of the polypeptide RSKAKNPLYRRRRRRRRR to alter UV-induced oxidative damage of cell-derived lipids was examined using the TBARS thiobarbituric acid-reactive substances (TBARS) lipid peroxidation assay.
After irradiation or sham-irradiation of dermal fibroblasts, supernatants (900 μL) were collected. In brief, 90 μL of butylated hydroxytoluene (2% w/w in ethanol) was added and samples kept frozen (−20° C.) until the TBARS assay. Petri dishes were washed twice with 1 mL of HBSS, cells scraped in 600 μL of water and 60 μL of 0.5% aqueous Triton X100 added to this solution, for protein determination carried out by the Lowry method (Lowry O H et al, J. Biol. Chem., 1951, 193:265-275). TBARS were fluorometrically assayed as described (Morlière P et al, Biochim. Biophys. Acta, 1991, 1084:261-268). Briefly, thawing samples were heated in the presence of thiobarbituric acid in acidic conditions, and TBARS extracted with 1-butanol and fluorometrically quantified (λexc=515 nm and Aem=550 nm). Tetraethoxypropane, which quantitatively yields the malondialdehyde-thiobarbituric acid adduct in the assay conditions, was used for calibration. TBARS values, expressed in malondialdehyde (MDA) equivalents, were normalized to the cell protein for each Petri dish. Each TBARS determination was performed in triplicate (e.g., with three Petri dishes per data point).

human skin explants = test: sunburn (apoptotic) cells in UV-irradiated human skin explants
Method: Skin explants were cultured irradiated and treated as described above for CPD, and subsequent to treatment were stained and quantified as described for Example 6.

## RSKAKNPLYRRRRRRRRR (not fully specified (some residues)) [IK34720]
CREB-S133
  UV-induced phosphorylation of serine at position 133 of CREB: inhibits UV-induced phosphorylation
Dermal fibroblasts
  significant difference in TRS (TBA reactive substances) between Sham and UV irradiation: not seen
Human skin explants; 50 μM and 250 μM, 3 hrs and 24 hrs post UV-irradiation
  number of apoptotic cells: reduces the number of apoptotic cells
Human skin explants; 80 μM, 400 μM and 800 μM, following UV-irradiation, data not shown
  number of apoptotic cells: statistically significantly reduces the number of apoptotic cells
Human skin explants; 500 μM, 3 hrs and 24 hrs post UV-irradiation
  number of apoptotic cells: statistically significantly reduces the number of apoptotic cells
